Here are results for eight compounds from PMC10526139, “Molecular and Pharmacokinetic Aspects of the Acetylcholinesterase-Inhibitory Potential of the Oleanane-Type Triterpenes and Their Glycosides” (Biomolecules, 2023).

Test [1] concerns the target T1, AChE from electric eel type VI-S (Electrophorus electricus, UniProt O42275).
T1 construct: purchased Sigma Aldrich
The experiment in a line: TLC-bioautography assay towards AChE inhibition. The class given is biochemical. On the procedure:
Six standards of oleanane-type triterpenes: arjunic acid, arjunolic acid, arjungenin, arjunglucoside I, sericic acid and arjunetin—purchased from Sigma Aldrich (St. Louis, MO, USA)—were prepared at the concentration of 1 mg/mL in double-distilled water: methanol (50:50 v/v) and they were applied separately at the surface of the aluminum normal phase 10 cm × 10 cm TLC plate (Silica gel 60 F254, Merck, Darmstadt, Germany) with an autosampler (Camag, Muttenz, Switzerland) as the 6 mm zones, distant from one another by 1.5 cm horizontally and 2 cm vertically. Every reference solution was applied as 4, 6, 8 and 10 µL volume bands on three TLC plates.
The TLC plates were later subjected to the enzymatic assay according to the previously published protocol, with some modifications.
As the TLC plate was not developed in a TLC solvent system but was used directly in the TLC bioautographic assay, the authors modified the previously published protocol and sprayed the TLC with the substrate (2-naphtyl acetate; Sigma Aldrich, St. Louis, […], USA) dissolved in distilled water at the quantity of 30 mg/20 mL. The TLC was dried in cold air and later the solution of the AChE enzyme (AChE from electric eel type VI-S, Sigma Aldrich, St. Louis, […], USA) dissolved in the aqueous solution of Tris-HCl buffer (pH 7.8; Sigma Aldrich, St. Louis, […], USA) with […] (500 mg/100 mL, Sigma Aldrich, St. Louis, […], USA) at the quantity of 3 U/mL was sprayed on the TLC plate and incubated at the temperature of 37 °C for the following 20 min in a humid incubator. In the next step, the Fast Blue B (Sigma Aldrich, St. Louis, […], USA) solution (0.615 mg/mL) was sprayed on the plate and visualized active zones as white spots against the violet background. The area of the discolored zones corresponded to the inhibitory strength of the respective zones.
Finally, the TLC plate was dried in the air and analyzed by a Camag TLC visualizer (Camag, Muttenz, Switzerland) under visible light. The peak areas of the discolored zones were automatically calculated by the WinCats program (version 1.4, Camag, Muttenz, Switzerland) and their size was compared to calculate the IC50 values that corresponded to the concentration of the standard giving the half maximum inhibition of the AChE enzyme.

In a further test the test system is AChE. As to conditions: AChE inhibition; cited from earlier work.

T1 sequence (O42275 24-633): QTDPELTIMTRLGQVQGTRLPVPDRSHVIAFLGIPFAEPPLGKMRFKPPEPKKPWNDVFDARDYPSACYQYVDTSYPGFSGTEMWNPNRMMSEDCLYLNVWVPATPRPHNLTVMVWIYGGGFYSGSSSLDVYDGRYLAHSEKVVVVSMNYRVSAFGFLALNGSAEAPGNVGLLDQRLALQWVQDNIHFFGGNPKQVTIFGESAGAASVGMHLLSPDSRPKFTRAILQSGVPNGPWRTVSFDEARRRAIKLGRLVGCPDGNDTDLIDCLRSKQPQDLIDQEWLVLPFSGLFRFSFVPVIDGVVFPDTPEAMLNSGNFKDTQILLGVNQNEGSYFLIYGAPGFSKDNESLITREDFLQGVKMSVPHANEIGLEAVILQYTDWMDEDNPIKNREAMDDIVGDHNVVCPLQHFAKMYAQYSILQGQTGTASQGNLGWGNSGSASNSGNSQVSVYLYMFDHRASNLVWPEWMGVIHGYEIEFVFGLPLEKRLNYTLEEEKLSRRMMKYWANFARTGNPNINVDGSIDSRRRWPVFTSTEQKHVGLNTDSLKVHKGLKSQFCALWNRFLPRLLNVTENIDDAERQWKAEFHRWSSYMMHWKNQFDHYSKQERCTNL

As for `CC1(C)CC[C@]2(C(=O)O)CC[C@]3(C)C(=CC[C@@H]4[C@@]5(C)C[C@@H](O)[C@H](O)[C@@](C)(CO)[C@@H]5CC[C@]43C)[C@@H]2[C@@H]1O` [Arjungenin], in test [1], the IC50 was 19.5 µM.

Regarding `C[C@H]1[C@H](C)CC[C@]2(C(=O)O)CC[C@]3(C)C(=CC[C@@H]4[C@@]5(C)C[C@@H](O)[C@H](O)[C@@](C)(CO)[C@@H]5CC[C@]43C)[C@H]12` [asiatic acid], in the test with AChE, the IC50 is 15.05 ± 0.05 µM.

Turning to `CC1(C)CC[C@]2(C(=O)O[C@@H]3O[C@H](CO)[C@@H](O)[C@H](O)[C@H]3O)CC[C@]3(C)C(=CC[C@@H]4[C@@]5(C)C[C@@H](O)[C@H](O)[C@@](C)(CO)[C@@H]5CC[C@]43C)[C@@H]2[C@@H]1O` [Arjunglucoside I], 13.2 µM corresponded to half-maximal inhibition in test [1] (IC50).

`CC1(C)CC[C@]2(C(=O)O)CC[C@]3(C)C(=CC[C@@H]4[C@@]5(C)C[C@@H](O)[C@H](O)[C@](C)(CO)[C@@H]5CC[C@]43C)[C@@H]2[C@@H]1O` [Sericic acid] gave an IC50 in test [1] of 16.4 µM.

For the compound `CC1(C)CC[C@]2(C(=O)O)CC[C@]3(C)C(=CC[C@@H]4[C@@]5(C)C[C@@H](O)[C@H](O)C(C)(C)[C@@H]5CC[C@]43C)[C@@H]2[C@@H]1O` [Arjunic acid], the IC50 in test [1] is 20.7 µM.

`CC1(C)CC[C@]2(C(=O)O[C@@H]3O[C@H](CO)[C@@H](O)[C@H](O)[C@H]3O)CC[C@]3(C)C(=CC[C@@H]4[C@@]5(C)C[C@@H](O)[C@H](O)C(C)(C)[C@@H]5CC[C@]43C)[C@@H]2[C@@H]1O` [Arjunetin] had an IC50 in test [1] of 18.8 µM.

With `COc1ccc2c3c1O[C@H]1C[C@@H](O)C=C[C@@]31CCN(C)C2` [galantamine], the IC50 in the test on AChE was […].

Consider `CC1(C)CC[C@]2(C(=O)O)CC[C@]3(C)C(=CC[C@@H]4[C@@]5(C)C[C@@H](O)[C@H](O)[C@@](C)(CO)[C@@H]5CC[C@]43C)[C@@H]2C1` [Arjunolic acid], for which, in test [1], the IC50 was 16.2 µM.

One may read the IC50 as the point on the concentration scale where inhibition reaches its midpoint.
